This is an account of results in patent publication US10265372B2, “Molecular composition for enhancing and rejuvenating maintenance and repair of mammalian tissues” (The Regents of the University of California, priority 2014, dated 2019).

“Also recorded” adds a separate entry of the source.

For one experiment, the system named is primary myoblasts. In words: Primary myoblast proliferation, BrdU pulse, OT/Alk5i dose matrix (FIG. 3A). The experiment is classed as cell-based, mouse. As to conditions: primary myoblasts in Opti-MEM (low mitogen), OT in nM, Alk5i in μM. From the text:
(§1) FIGS. 3A-3C depict dose-curve matrices of OT, Alk5i and OT+Alk5i effects on myogenic and neurogenic cell proliferation. FIGS. 3A-3C show the effect of the indicated concentrations of OT (in nM) and Alk5-inhibitor (a5i, μM) on primary myoblasts in Opti-MEM (FIG. 3A); on old satellite cells isolated from 3 DPI muscle in Opti-MEM with 5% old mouse serum (FIG. 3B); and on rat neural precursor cells in basal medium (DMEM/F12/N2) (FIG. 3C). Cells were pulsed with BrdU, and BrdU immunodetection and Hoechst staining were performed. Percent proliferating cells (myogenic and neurogenic) were quantified (manually, by ImageJ and by Molecular Devices ImageXpress Micro automated epifluorescence imager, with automated cell quantification by MetaXpress). Shown is the percent proliferation visualized as a topographic map.
Isolation of Muscle Stem Cells and Primary Myoblasts: Tibialis Anterior (TA) and Gastrocneimus (Gastroc) muscles will undergo enzymatic digestion with collagenase type II. Fat pads and tendons will be removed and rounds of muscle trituration and sedimentation will purify myofibers with associated muscle stem (satellite) cells. Myofibers will be incubated with collagenase type II and dispase; suspensions will be vortexed to release satellite cells from digested fibers, passed through a cell strainer and pre-plated on uncoated dishes for 20 minutes at 37° C., 5% CO2. […]

Experiment [1] deals with rat neural precursor cells. In words: Neural precursor cell proliferation in basal medium, BrdU pulse (FIG. 3C). The class given is cell-based. As to conditions: rat neural precursor cells in basal medium (DMEM/F12/N2).
Text: as §1
Isolation and Culture of Neural Progenitor Cells: Primary rat neural progenitor cells (NPCs) isolated from the hippocampi of Fisher 344 rats (Charles River) will be maintained in DMEM/F12 (Life Technologies) containing N2 supplement (Life Technologies) and 10 ng/mL FGF-2 (PeproTech) on laminin (Roche) and polyornithine (Sigma) coated tissue culture plates. […]

Experiment [2] deals with TA muscle regeneration after CTX injury. In words: In vivo epistasis between TGFβ1 and oxytocin: TA muscle regeneration after CTX injury (FIG. 4A-4B). Particulars: young (3 mo) mice, CTX-injured TA, 5 days after injury; for Muscle regeneration after injury, effect of ectopic TGFβ1 alone (histology): recombinant TGFβ1 20 ng/muscle. Also on record: species or system mouse. How it is done: Further support for the advantages of the combined administration of OT and Alk5i comes from the observation of epistasis between the TGF-beta1 and oxytocin.
FIGS. 4A and 4B show the in vivo epistasis between TGFβ1 and Oxytocin. Young (3 mo) mouse TA muscles were injured with CTX with or without recombinant TGFβ1 (20 ng/muscle), and mice were administered 1 μg/g OT or vehicle (HBSS) by subcutaneous delivery into circulation. TGFβ1 or vehicle and OT were administered again the following day. Mice were sacrificed 5 days after injury and muscle sectioned for histological examination (with Hematoxilin and Eosin staining) in 10 um cryosections. All samples were processed and analyzed in a blinded study. […] FIG. 4B depicts the regenerative index of the three different conditions. The regenerative index was quantified by expressing the number of newly formed fibers over total nuclei in the injury/regeneration sites; *p<0.01.

The subject of experiment [3] is muscle stem cells (satellite cells). In words: Effects of OT and OTA on muscle stem (satellite) cells. The class given is cell-based, mouse.
The subject of experiment [4] is muscle regeneration. In words: Systemic oxytocin or oxytocin antagonist and muscle regeneration in mice. The experiment is classed as in vivo, mouse. Particulars: OT alone. From the text:
OXTR agonists may be used to treat and prevent sarcopenia, improve muscle regeneration after injury and prevent muscle mass loss observed after long term immobilization (bed rest or cast), as well as low gravity (space travel). Specifically, oxytocin is more desirable than other drugs on the market or under development, since it is physiologic, has virtually no side effects and is already FDA approved to induce labor in pregnant women and in clinical trials to treat children with autism. The plasmatic level of oxytocin decreases with age in mice. […] Confirming the dependence of muscle maintenance and repair on oxytocin, mice with a knock out in oxytocin have defective muscle regeneration and premature sarcopenia (loss of muscle tissue). Oxytocin is also known to prevent osteoporosis and regulate fat distribution after menopause. Oxytocin inhibits p16 (marker and effector of senescence) in adult stem cells, thereby enabling their productive responses to maintain and repair tissues.

Experiment [5] relates to muscle stem cells (satellite cells). As to conditions: cited from earlier work.
Experiment [6] deals with muscle regeneration. Particulars: Elabd et al. 2014, cited from earlier work.

With `Cc1cccc(-c2n[nH]cc2-c2ccc3ncccc3n2)n1` [Alk5i, 2-(3-(6-Methylpyridin-2-yl)-1H-pyrazol-4-yl)-1,5-naphthyridine], in the experiment on primary myoblasts, the “Percent proliferating cells (BrdU), myoblast proliferation” value was “bi-phasic effect on myoblast proliferation”. Moreover, the “Percent proliferating cells (BrdU), NPC proliferation” value in experiment [1] was “diminishes proliferation of NPCs”. For the same compound, in the experiment with aged mice (aged mice), the “Expression of CDKIs” value was “attenuates the expression of CDKIs”. Besides, the Myogenesis and neurogenesis result in the experiment with aged mice (aged/old mice, systemic Alk5i alone, listed as ALK5 inhibitor) was “simultaneously rejuvenates myogenesis and neurogenesis”. Besides, the Inflammation result in the experiment with aged mice (delivered systemically into 2-year old mice) is reported as “reduces inflammation”. The “pSmads in Sox-2+ cells of SGZ” value in the experiment on aged mice (systemically administered) is listed as “down-modulating pSmads”.

As to `CC[C@H](C)[C@@H]1NC(=O)[C@H](Cc2ccc(O)cc2)NC(=O)[C@@H](N)CSSC[C@@H](C(=O)N2CCC[C@H]2C(=O)N[C@@H](CC(C)C)C(=O)NCC(N)=O)NC(=O)[C@H](CC(N)=O)NC(=O)[C@H](CCC(N)=O)NC1=O` [OT, oxytocin], the “Muscle regeneration after injury in mice given ectopic TGFβ1 (histology)” value in experiment [2] (TGFβ1 20 ng/muscle, OT 1 μg/g subcutaneous) was “rescued muscle regeneration; also recorded: rescues the regeneration of young muscle injected with TGFβ1”. Moreover, the “pERK in muscle stem cells” value in experiment [3] (muscle stem cells) is listed as “activates pERK”. In addition, in experiment [3] (old satellite cells), the “CDKIs in satellite cells” value is listed as “attenuates CDKIs”; the “Proliferation and myogenicity of old satellite cells” value was “enhances proliferation and myogenicity”. Besides, in experiment [3] (satellite cells of oxytocin knock out (OtKO) mice), the “OtKO satellite cell decline” value is recorded as “rescues the OtKO satellite cell decline”. Moreover, the “Muscle maintenance and repair in old mice” value in the experiment on muscle regeneration [4] was “significantly enhances muscle maintenance and repair”. The “p16 (marker and effector of senescence) in adult stem cells” value in experiment [5] is recorded as “inhibits p16”. Moreover, in the experiment on muscle regeneration [6] (old mice, short term subcutaneous injection (systemic delivery)), the “Muscle regeneration in old mice” value is recorded as “able to restore muscle regeneration”.

For `COc1cc(OC2CCN(C(C)=O)CC2)ccc1C(=O)N1CCC(N2C(=O)OCc3ccccc32)CC1` [OTA], in experiment [3] (young satellite cells), the “Myogenicity of young satellite cells” value is reported as “inhibits myogenicity”. In the experiment with muscle regeneration [6] (young mice, injection of oxytocin antagonist), the “Muscle regeneration potential in young mice” value is listed as “prematurely ages their muscle regeneration potential”.

“TGFβ1: recombinant TGFβ1, given ectopically into injured muscle (R&D systems)”: the figures for the “Muscle regeneration after injury, effect of ectopic TGFβ1 alone (histology)” value in experiment [2] and in experiment [2] (listed as TGF-beta 1) were “promotes scarring” and “inhibited muscle regeneration”, respectively.
